Measurements as given in PubChem BioAssay (NCI).
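Cells were grown in 96-well plates and exposed to each compound for 48 hours at five concentrations; endpoints were interpolated linearly between bracketing concentrations, or set to the highest concentration if not reached. Abbreviation: GI50, concentration required for 50% inhibition of growth. TGI: concentration producing complete growth inhibition.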 *1 amine or outer side, *2 acyl side, *3 side chain or, on linkers, in order; H or OH if unused. Where a SMILES comes first, the peptide text is derived from it. [ ]: non-standard residue; d: D form. The star is where a group is joined. ξ: configuration not given here. X15 = CCN(CC)c1ccc2cc(N*)c(=O)oc2c1; dIva = CC[C@@](C)(N)C(=O)O; X14 = O=C(OCCN[*:1])[*:2]; Aib = CC(C)(N)C(=O)O; ξP = O=C(O)C1CCCN1; βAla = NCCC(=O)O

Each molecule was assayed on MDA-MB-468 breast (assay: DTP human tumour cell line panel, 48 h).

Q: For `Nc1n[nH]c2ccc([C@@H]3Nc4ccc5[nH]ncc5c4[C@H]4C5C=CC(C5)[C@@H]34)cc12` (some centres undefined), which GI50 is on record?
A: The GI50 was 0.329 µM.

Q: And the TGI?
A: Its TGI is 16 µM.

Q: Which GI50 does the source give for `CCN(CC)c1ccc2cc(NC(=O)OCCNC(=O)CCNC(=O)[C@H](CC(C)C)NC(=O)C(C)(C)NC(=O)C(C)(C)NC(=O)[C@H](CC(C)C)NC(=O)CCNC(=O)C(C)(C)NC(=O)[C@H](CC(C)C)NC(=O)CCNC(=O)[C@@](C)(CC)NC(=O)[C@H](C)NC(=O)CCNC(=O)C(C)(C)NC(=O)[C@H](C)NC(=O)[C@@H]3CCCN3C(=O)[C@@](C)(CC)NC(=O)[C@H](Cc3ccccc3)NC(=O)C3CCCN3C(=O)C(C)(C)NC(=O)C3CCCN3C(=O)C(C)(C)NC(C)=O)c(=O)oc2c1` (some centres undefined) (Ac-[Aib][ξP][Aib][ξP]F[dIva]PA[Aib][βAla]A[dIva][βAla]L[Aib][βAla]L[Aib][Aib]L[βAla][X14]-X15) here?
A: Its GI50 is 0.00277 µM.

Q: And the TGI?
A: The TGI was 0.00774 µM.

Q: How did the GI50 turn out when `O=C(c1cccnc1)c1cc(-c2ccccn2)c(=O)n2ccccc12` was run?
A: Its GI50 is > 100 µM.

Q: What about the TGI of the same molecule?
A: The TGI was > 100 µM.

Q: How did the GI50 turn out when `O=C(OCCBr)c1ccc(Cl)c([N+](=O)[O-])c1` was run?
A: Its GI50 is 1.9 µM.

Q: And the TGI?
A: The TGI was 4.09 µM.

Q: For `CCCCNC(=O)NS(=O)(=O)c1ccc(N2N=C(c3cc(C)ccc3C)CC2c2cc(OC)c(OC)c(OC)c2)cc1` (centres undefined), which GI50 is on record?
A: Its GI50 is 2.17 µM.

Q: And the TGI?
A: Its TGI is 5.35 µM.

Q: With `CC1(C)CC[C@]23CC[C@]4(C)[C@H](CC[C@@H]5[C@@]6(C)CC[C@H](NCO)C(C)(C)[C@@H]6CC[C@]54C)[C@H]2[C@H]1OC3` as the molecule, how does the GI50 read?
A: The GI50 was 1.85 µM.

Q: What about the TGI of the same molecule?
A: The TGI was 3.71 µM.

Q: Which results are given for `COc1cc(C(=O)/C=C/c2cccnc2Nc2ccccc2)cc(OC)c1OC`?
A: GI50: 0.665 µM; TGI: 2.1 µM

Q: For `CC1(C)CC[C@]2(C(=O)N3CCOCC3)CC[C@]3(C)C(=CC[C@@H]4[C@@]5(C)C/C(=C/c6ccncc6)C(=O)C(C)(C)[C@@H]5CC[C@]43C)[C@@H]2C1`, which GI50 is on record?
A: The GI50 was 0.712 µM.

Q: And the TGI?
A: The TGI was > 100 µM.

Q: What does the source list for `Nc1nc(N)c(N=O)c(OCC2CCCCC2)n1`?
A: GI50: 15.2 µM; TGI: 52.9 µM

Q: Which results are given for `CCOc1ccccc1/C=N\N=C(\N)N/N=C/c1ccccc1OCC`?
A: GI50: 1.72 µM; TGI: 8.48 µM

Q: How did the GI50 turn out when `C=C1CCC2C3(C)COC(c4ccccc4Br)OC3CCC2(C)C1C/C=C1/C(=O)OCC1OC(C)=O` (centres undefined) was run?
A: Its GI50 is 1.2 µM.

Q: What about the TGI of the same molecule?
A: Its TGI is 2.82 µM.

Q: `CN(C)CC1CCCCCC(CN(C)C)C1=O` (centres undefined) was tested. Which GI50 did it give?
A: Its GI50 is 0.502 µM.

Q: What about the TGI of the same molecule?
A: The TGI was 2.54 µM.

Q: Which results are given for `Cn1ccnc1C(=O)/C=C/c1ccc(CC(=O)Nc2ccc(C(F)(F)F)cc2)cc1`?
A: GI50: 2.09 µM; TGI: 4.66 µM

Q: What does the source list for `CCN1C(=O)N(CC)C2C1NN=c1s/c(=C\c3cc4ccccc4[nH]3)c(=O)n12` (centres undefined)?
A: GI50: < 0.01 µM; TGI: 8.52 µM

Q: `CC(=O)O[C@H]1CC[C@@]2(C)[C@@H](CC[C@@H]3[C@@H]2CC[C@]2(C)C=C(C=O)C[C@@H]32)C1` was tested. Which GI50 did it give?
A: The GI50 was 15.5 µM.

Q: What about the TGI of the same molecule?
A: The TGI was 38.2 µM.

Q: Which GI50 does the source give for `COc1ccc(-c2nn(-c3cccc(Cl)c3)cc2-c2cc(-c3ccccc3)nc(N)n2)cc1` here?
A: The GI50 was 1.72 µM.

Q: What about the TGI of the same molecule?
A: The TGI was 3.59 µM.

Q: What does the source list for `O=C(COc1cccc(/C=C2\COc3ccc(Cl)cc3C2=O)c1)c1ccc(Cl)cc1`?
A: GI50: 2.82 µM; TGI: 9.26 µM

Q: With `CC(C)(C#N)c1cc(C(=O)Nc2cc(Nc3ncccc3-c3ncnc4nc[nH]c34)ccc2F)cc(C(F)(F)F)c1` as the molecule, how does the TGI read?
A: Its TGI is > 4.09 µM.

Q: For `O=C(CCCSc1nc(-c2ccccc2)cc(-c2ccc(Cl)cc2)n1)NO`, which GI50 is on record?
A: Its GI50 is 1.58 µM.

Q: And the TGI?
A: The TGI was 3.89 µM.

Q: For `COc1cc(C2C3=C(COC3=O)Nc3cc4c(cc32)CCC4)cc2c1OCO2` (centres undefined), which GI50 is on record?
A: Its GI50 is 0.0281 µM.

Q: And the TGI?
A: The TGI was 0.147 µM.

Q: For `Nc1ccc(-c2ccc(N)cc2I)c(I)c1`, which GI50 is on record?
A: Its GI50 is 5.93 µM.

Q: What about the TGI of the same molecule?
A: Its TGI is 44.9 µM.

Q: Which results are given for `Nc1c(C(=O)Nc2ccccc2)sc2nc3c(cc12)CN(Cc1ccccc1)CC3`?
A: GI50: 17 µM; TGI: > 100 µM

Q: With `CCN(CC)c1ccc(C(=N)c2ccc(N(C)C)cc2)cc1` as the molecule, how does the GI50 read?
A: Its GI50 is 0.113 µM.

Q: And the TGI?
A: The TGI was 2.25 µM.

Q: What does the source list for `CCCCCCCOc1c(OC)cc(C2CC(=O)Nc3c2c(C)nn3-c2nc3ccccc3[nH]2)cc1OC` (centres undefined)?
A: GI50: 2.45 µM; TGI: 7.12 µM

Q: `CCCCN(CCCC)c1ccc(C(=NC(C)CCCN(CC)CC)c2ccc(N(C)C)cc2)cc1` (centres undefined) was tested. Which GI50 did it give?
A: The GI50 was 0.795 µM.

Q: And the TGI?
A: Its TGI is 1.67 µM.

Q: `CN(C)c1ccc(C(=C2C=CC(=[N+](C)C)C=C2)c2ccc(N(C)C)cc2)cc1` was tested. Which GI50 did it give?
A: The GI50 was 0.12 µM.

Q: And the TGI?
A: The TGI was 0.43 µM.

Q: For `CN1CCN(Cc2ccc(NC(=O)c3cncc(C#Cc4cnc5ccc(OCC(F)F)nn45)c3)cc2C(F)(F)F)CC1`, which GI50 is on record?
A: The GI50 was 0.428 µM.

Q: What about the TGI of the same molecule?
A: Its TGI is 1.33 µM.

Q: What does the source list for `COc1cc(C2CC(c3ccc(N(C)C)cc3)=NN2C(C)=O)cc(OC)c1OC` (centres undefined)?
A: GI50: 1.72 µM; TGI: > 100 µM

Q: With `CC(C)c1ccc(Nc2nccc(-c3cnn4ncccc34)n2)cc1` as the molecule, how does the GI50 read?
A: Its GI50 is 0.271 µM.

Q: What about the TGI of the same molecule?
A: The TGI was 0.833 µM.

Q: What does the source list for `CS(=O)(=O)Nc1ccc(N=Cc2c(O)[nH]c3ccccc23)cc1`?
A: GI50: > 25 µM; TGI: > 25 µM

Q: `CCNCCNc1cc(C2CCCCC2)c(C#N)c2nc3ccccc3n12` was tested. Which GI50 did it give?
A: Its GI50 is 0.751 µM.

Q: And the TGI?
A: Its TGI is 2.1 µM.

Q: `CCCOc1nc(SCCC)nc2c1cnn2-c1ccccc1` was tested. Which GI50 did it give?
A: The GI50 was > 100 µM.

Q: And the TGI?
A: Its TGI is > 100 µM.

Q: What does the source list for `FC(F)(F)c1ccc(-c2cnc(Cl)nc2NCc2cc(C(F)(F)F)cc(C(F)(F)F)c2)cc1`?
A: GI50: 2.06 µM; TGI: 9.15 µM

Q: Which GI50 does the source give for `Cc1[nH]c2ccccc2c1CCNCc1ccc(/C=C/C(=O)NO)cc1` here?
A: The GI50 was < 0.01 µM.

Q: What about the TGI of the same molecule?
A: The TGI was 0.14 µM.

Q: How did the GI50 turn out when `COCCNc1cc(NC(=O)N2CCCc3cc(CN4CCN(C)CC4=O)c(C=O)nc32)ncc1C#N` was run?
A: The GI50 was 26.5 µM.

Q: What about the TGI of the same molecule?
A: Its TGI is > 50 µM.

Q: With `OCC1OC(n2cnc3c(=S)nc[nH]c32)C(O)C1O` (centres undefined) as the molecule, how does the GI50 read?
A: Its GI50 is 0.631 µM.

Q: And the TGI?
A: Its TGI is > 100 µM.

Q: Which GI50 does the source give for `O=C(N/N=C/c1cc([N+](=O)[O-])ccc1O)c1cccc2ccccc12` here?
A: The GI50 was 1.52 µM.

Q: And the TGI?
A: The TGI was 4.74 µM.

Q: How did the GI50 turn out when `O=C(CN1CCN(c2ccccc2)CC1)N1CCN(c2nnc(-c3ccc(Cl)cc3)c(-c3ccc(Cl)cc3)n2)CC1` was run?
A: Its GI50 is 18.9 µM.

Q: And the TGI?
A: The TGI was 95.3 µM.

Q: How did the GI50 turn out when `Nc1n[nH]c2cccc(C#Cc3cccc(C(=O)Nc4cc(CN5CCOCC5)cc(C(F)(F)F)c4)c3)c12` was run?
A: The GI50 was 3.47 µM.

Q: And the TGI?
A: The TGI was 12.9 µM.

Q: `C[C@]12CCc3sc(Nc4ccc(O)cc4)nc3C1=CC[C@@H]1[C@@H]2CC[C@]2(C)C(=O)CC[C@@H]12` was tested. Which GI50 did it give?
A: Its GI50 is 2.17 µM.

Q: And the TGI?
A: Its TGI is 5.8 µM.
